Reference: PubChem BioAssay (NCI)
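48-hour exposure; five concentrations; linearly interpolated endpoints. GI50 = concentration required for 50% inhibition of growth. Definition used: TGI = concentration required for complete inhibition of growth.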

Key:
Test in all cases: inhibition of tumour cell growth, NCI panel, 48 h
SK-MEL-2 melanoma = tested on: SK-MEL-2 melanoma
ACHN renal = tested on: ACHN renal
SN12C renal = tested on: SN12C renal
MOLT-4 leukemia = tested on: MOLT-4 leukemia
EKVX NSCLC = tested on: EKVX NSCLC
CCRF-CEM leukemia = tested on: CCRF-CEM leukemia
KM12 colon = tested on: KM12 colon
SK-MEL-28 melanoma = tested on: SK-MEL-28 melanoma
SNB-19 CNS = tested on: SNB-19 CNS
BT-549 breast = tested on: BT-549 breast

Row | SMILES | GI50 (SK-MEL-2 melanoma) [µM] | TGI (SK-MEL-2 melanoma) [µM] | GI50 (ACHN renal) [µM] | TGI (ACHN renal) [µM] | GI50 (SN12C renal) [µM] | TGI (SN12C renal) [µM] | GI50 (MOLT-4 leukemia) [µM] | TGI (MOLT-4 leukemia) [µM] | GI50 (EKVX NSCLC) [µM] | TGI (EKVX NSCLC) [µM] | GI50 (CCRF-CEM leukemia) [µM] | TGI (CCRF-CEM leukemia) [µM] | GI50 (KM12 colon) [µM] | TGI (KM12 colon) [µM] | GI50 (SK-MEL-28 melanoma) [µM] | TGI (SK-MEL-28 melanoma) [µM] | GI50 (SNB-19 CNS) [µM] | TGI (SNB-19 CNS) [µM] | GI50 (BT-549 breast) [µM] | TGI (BT-549 breast) [µM]
1 | COc1cc(N2CCC(N3CCN(C)CC3)CC2)ccc1Nc1ncc(Cl)c(Nc2ccccc2S(=O)(=O)C(C)C)n1 | 1.33 | 3.45 | 0.76 | 2.61 | 0.613 | 14.2 | 0.809 | 5.71 | 0.489 | 11.5 | 0.424 | 5.86 | 0.352 | 3.48 | 1.74 | 3.41 | 2.07 | 12.2 | 2.09 | 5.6
2 | Nc1ccc(-c2ccc(-c3nc4cc(Cl)c(Cl)cc4[nH]3)cc2)cc1 | 2.46 | > 100 | 0.0833 | > 34.8 | 17.9 | > 66.7 | 1.66 | > 85 | 11.6 | > 100 | 0.508 | > 52.7 | 0.826 |  | 13.4 | > 100 | 23.7 | > 100 | 27.4 | > 100
3 | O=c1ccnc(SCc2ccc(Cl)cc2)[nH]1 |  | > 100 |  | > 100 |  | > 100 |  | > 100 |  | > 100 |  | > 100 |  | > 100 |  | > 100 |  | > 100 |  | > 100
4 | C=C(CN(C)C)C(=O)c1ccc(Oc2ccccc2)cc1 |  | 19.6 |  | 5.08 |  | 16.4 |  | 2.05 |  | 44 |  | 14.6 |  | 29.8 |  | 17.4 |  | 28.8 |  | 12.9
5 | N#CSc1ccc(S(N)(=O)=O)cc1 |  | > 100 |  | > 100 |  | > 100 |  | 29.6 |  | > 100 |  | 88.7 |  | > 100 |  | > 100 |  | > 100 |  | > 100
6 | COc1ccc2c(c1)C(=O)c1c-2c(NCCN(C)C)nc2ccccc12 | 15.7 | 31 | 1.17 | 6.43 | 3.74 | 16 | 0.291 | 1.15 | 3.06 | 16.4 | 0.561 | 11.5 | 2.94 | 23 | 13.9 | 26.9 | 3.28 | 12.7 | 5.99 | 19.3
7 | CN1CCN(CC(=O)N2c3cccc4cccc(c34)N(C(=O)CN3CCN(C)CC3)C2c2cn(-c3ccccc3)nc2-c2cccc([N+](=O)[O-])c2)CC1 | 1.95 | 4.04 | 2.22 | 5.33 | 1.99 | 4.28 | 2.21 | 5.94 | 2.84 | 11.5 | 1.69 | 4.45 | 1.85 | 3.43 | 1.81 | 3.36 | 2.96 | 11.3 | 1.67 | 3.26
8 | Nc1nc(-c2ccccc2)cc(-c2ccc(Cl)cc2)c1-c1nc2ccccc2o1 | 18 | 37.9 | 11.1 | 23 | 7.56 | 20 | 5 | 20.3 | 14 | 27.7 | 3.8 | 17 | 5.65 | 20.7 | 17 | 32.6 | 17.7 | 37.9 | 15.5 | 29.7
9 | N#Cc1nn(-c2cc(=O)[nH]c3ccc(Br)cc23)c(N)c1C#N | > 100 | > 100 | > 100 | > 100 | > 100 | > 100 | > 100 | > 100 | 4.6 | > 100 | > 100 | > 100 | > 100 | > 100 | > 100 | > 100 | > 100 | > 100 | > 100 | > 100
10 | O=C(NCCCCCCNC(=O)OCc1ccc2c(Cl)cc(Cl)c(O)c2n1)OCc1ccc2c(Cl)cc(Cl)c(O)c2n1 | 1.45 | 2.99 | 0.353 | 1.32 | 0.957 | 2.25 | 0.688 | 5.55 | 1.51 | 3.08 | 0.311 |  | 1.34 | 2.95 | 1.19 | 2.42 | 1.49 | 2.91 | 0.748 | 2.17
11 | C=C(C)[C@@H]1CC[C@]2(C(N)=O)CC[C@]3(C)[C@H](CC[C@@H]4[C@@]5(C)C/C(=C/c6cccnc6)[C@H](O)C(C)(C)[C@@H]5CC[C@]43C)[C@@H]12 | 4.35 | 42.9 | 3.53 | > 100 | 4.82 | > 100 | 2.93 | > 100 | 4.03 | > 100 | 3.86 | > 100 | 3.82 | > 100 | 6.14 | > 100 | 6.02 | > 100 | 6.36 | > 100
12 | CC(C)(C)c1cc(-c2nc3c(F)c(F)c(F)c(F)c3[nH]2)cc(C(C)(C)C)c1O | > 100 | > 100 | > 100 | > 100 | > 100 | > 100 | > 100 | > 100 | > 100 | > 100 | > 100 | > 100 | > 100 | > 100 | > 100 | > 100 | > 100 | > 100 | > 100 | > 100
13 | Cc1ccc2c(c1)C=CC(C#N)N2C(=O)Oc1ccccc1 (stereo not drawn) |  | 61.9 |  | 83.3 |  | > 100 |  | 54.9 |  | 43 |  | 40.1 |  | 33.2 |  | > 100 |  | > 100 |  | 48.2
